# Measurements as given in patent publication US12398155B2, “Thienopyridinone compounds” (Janssen Pharmaceutica NV, priority 2019, dated 2025).
# How the values were obtained:
# [1] = molecular target: T1, NIH/3T3 cells overexpressing FGFR3 V555M-TACC3 fusion protein (Homo sapiens, UniProt P22607, V555M, cells depend on it); assay: NIH/3T3 FGFR3 V555M-TACC3 cell proliferation assay; assay type: cell-based; conditions: 72-hr incubation, CellTiter Glo; read-out: NIH/3T3 FGFR3 V555M-TACC3 CTG
# T1 construct: NIH/3T3 FGFR3 V555M-TACC3 CTG; other: 72-hr incubation, CellTiter Glo; fused on or other part: C-terminal part of TACC3 (coiled-coil) fused behind the FGFR3 kinase domain; Q9Y6A5 (Transforming acidic coiled-coil-containing protein 3)
# Procedure: NIH/3T3 FGFR3 V555M-TACC3 Cell Proliferation Assay
# (§1) In day 1, 90 μL of cell suspension (NIH/3T3 cells overexpressing FGFR3 V555M-TACC3 fusion protein) (total 30,000 cells per well in growth medium (DMEM containing 1% Glutamax, 10% FBS and 1% Pen/Strep)) was seeded in a 96-well plate and then incubated overnight at 37° C. and 5% CO2. In day 2, 10 μL of growth medium containing 10-fold stock solution of testing compound was added into cell cultures (9 dose points with 4× serial dilution, starting with 10 μM, 0.1% DMSO final). After 72-hr incubation at 37° C. and 5% CO2, in day 5 a volume of 50 μL CellTiter Glo (CTG) reagent was added into cell-containing 96-well plate and the plate was incubated at room temperature for 10 minutes before RLUs (relative light unit) were measured on a microplate reader with luminescence detection module. The RLU value was normalized to survival % and concentration-response curve was plotted using Prism to calculate IC50 (M), pIC50 (−log IC50) and HillSlope value.
# [2] = molecular target: T2, human FGFR3 V555M enzyme (cytoplasmic domain carrying V555M mutation) (Homo sapiens, UniProt P22607, V555M); assay: FGFR3 V555M mobility shift assay (enzymatic assay); assay type: biochemical; conditions: 30 μM ATP, 45 minutes at 30° C.; read-out: FGFR3 V555M Caliper
# T2 construct: cytoplasmic domain carrying V555M mutation, from Cama Biosciences; purchased Cama Biosciences (so in the source)
# Procedure: FGFR3 V555M Mobility Shift Assay (Enzymatic Assay)
# In a final reaction volume of 25 μL, 0.04 ng/μL human FGFR3 V555M enzyme (cytoplasmic domain carrying V555M mutation, from Cama Biosciences) was incubated with 30 μM ATP, 1 μM FL-peptide 30 substrate and 250 nL of testing compound (1% DMSO final) in assay buffer (100 mM HEPES pH 7.4, 10 mM MgCl2, 0.003% Brij35, 1 mM DTT). After incubation for 45 minutes at 30° C. the reaction was stopped with 10 μL of 0.5M EDTA pH 8.0, and then 25 μL of reaction mixture was transferred to reading plate and measured on Caliper EZ reader II. The substrate-product conversion rate was used as raw data for normalization and concentration-response curve (10 dose points with 4× serial dilution, starting with 10 μM) was plotted using Prism to calculate IC50 (M), pIC50 (−log IC50) and HillSlope value.
# [3] = system: NIH/3T3 cells overexpressing FGFR3 WT-TACC3 fusion protein; assay: NIH/3T3 FGFR3 WT-TACC3 cellular phospho-ERK assay (in vitro PD assay); assay type: cell-based; conditions: Mus musculus, NIH3T3; 1-hr incubation, AlphaLISA p-ERK1/2; read-out: NIH/3T3 FGFR3 WT-TACC3 pERK
# Procedure: NIH/3T3 FGFR3 WT-TACC3 Cellular Phospho-ERK Assay (In Vitro PD Assay)
# 50 μL of cell suspension (NIH/3T3 cells overexpressing FGFR3 WT-TACC3 fusion protein) (total 10,000 cells per well in growth medium (DMEM containing 1% Glutamax, 10% FBS and 1% Pen/Strep)) was seeded in a 384-well plate. After overnight incubation at 37° C. and 5% CO2, 5.5 μL of growth medium containing 10× testing compound was added into cell cultures (10 dose points with 4× serial dilution, starting with 10 μM, 0.1% DMSO final). After 1-hr incubation at 37° C. and 5% CO2, the medium was depleted and AlphaLISA SureFire Ultra p-ERKI1/2 (Thr202/Tyr204) Assay Kit (from PerkinElmer) was applied for phospho-ERK level detection according to the kit instructions. The RFUs (relative fluorescence units were measured on EnVision microplate reader (ex. 680 nm, em. 615 nm) and concentration-response curve was plotted using Prism to calculate IC50 (M), pIC50 (−log IC50) and HillSlope value.
# [4] = molecular target: T3, NIH/3T3 cells overexpressing FGFR3 WT-TACC3 fusion protein (Homo sapiens, UniProt P22607); assay: NIH/3T3 FGFR3 WT-TACC3 cell proliferation assay; assay type: cell-based; conditions: 72-hr incubation, CellTiter Glo; read-out: NIH/3T3 FGFR3 WT-TACC3 CTG
# T3 construct: NIH/3T3 FGFR3 WT-TACC3 CTG; other: 72-hr incubation, CellTiter Glo; fused on or other part: C-terminal part of TACC3 (coiled-coil) fused behind the FGFR3 kinase domain; Q9Y6A5 (Transforming acidic coiled-coil-containing protein 3)
# Procedure: NIH/3T3 FGFR3 WT-TACC3 Cell Proliferation Assay
# as §1, with “WT-TACC3” for “V555M-TACC3”
# T2 sequence (P22607 397-806 V555M limits assumed): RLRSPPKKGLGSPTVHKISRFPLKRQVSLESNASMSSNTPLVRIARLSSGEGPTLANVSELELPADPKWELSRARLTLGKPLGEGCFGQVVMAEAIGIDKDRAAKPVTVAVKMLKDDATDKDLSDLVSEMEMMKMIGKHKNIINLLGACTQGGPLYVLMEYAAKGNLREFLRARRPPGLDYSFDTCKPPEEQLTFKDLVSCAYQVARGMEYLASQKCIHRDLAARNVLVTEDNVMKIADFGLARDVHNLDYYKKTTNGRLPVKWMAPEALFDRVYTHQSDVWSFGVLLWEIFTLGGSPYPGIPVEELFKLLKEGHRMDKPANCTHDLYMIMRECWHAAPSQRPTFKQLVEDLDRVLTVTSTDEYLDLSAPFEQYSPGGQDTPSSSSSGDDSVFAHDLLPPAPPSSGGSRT
# T3 sequence (P22607 whole entry, change not shown, the tested form may be a part): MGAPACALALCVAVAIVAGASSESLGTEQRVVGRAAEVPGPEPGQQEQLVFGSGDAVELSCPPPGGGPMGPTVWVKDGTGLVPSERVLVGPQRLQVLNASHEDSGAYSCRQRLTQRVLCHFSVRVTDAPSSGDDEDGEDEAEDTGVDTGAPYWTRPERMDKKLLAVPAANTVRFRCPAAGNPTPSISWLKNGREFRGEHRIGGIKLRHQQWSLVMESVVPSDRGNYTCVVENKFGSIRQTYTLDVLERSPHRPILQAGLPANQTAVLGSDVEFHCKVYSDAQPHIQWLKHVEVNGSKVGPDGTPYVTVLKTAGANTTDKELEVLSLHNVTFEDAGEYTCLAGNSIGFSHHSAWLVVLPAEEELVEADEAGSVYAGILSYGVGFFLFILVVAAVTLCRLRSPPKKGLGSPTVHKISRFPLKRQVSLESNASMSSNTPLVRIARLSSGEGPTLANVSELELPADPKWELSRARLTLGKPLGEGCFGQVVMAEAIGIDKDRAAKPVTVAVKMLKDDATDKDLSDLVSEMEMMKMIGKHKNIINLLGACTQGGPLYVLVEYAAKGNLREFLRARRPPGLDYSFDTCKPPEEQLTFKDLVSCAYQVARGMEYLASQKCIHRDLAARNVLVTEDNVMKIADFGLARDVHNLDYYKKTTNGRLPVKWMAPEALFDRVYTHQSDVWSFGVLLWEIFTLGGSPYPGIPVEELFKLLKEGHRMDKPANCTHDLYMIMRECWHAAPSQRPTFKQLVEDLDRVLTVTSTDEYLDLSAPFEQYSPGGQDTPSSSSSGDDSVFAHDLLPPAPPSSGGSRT
# T1 sequence (P22607 whole entry V555M, the tested form may be a part): as the sequence (P22607 whole entry, change not shown, the tested form may be a part) above, with V555M counted along it
smiles,measurement,setting,value
"C[C@H](Nc1c(-c2nc3cnc(N4CCOCC4)cc3[nH]2)c(=O)[nH]c2ccsc12)c1ncccn1 [Compound 2, (S)-6-(6-Morpholino-1H-imidazo[4,5-c]pyridin-2-yl)-7-((1-(pyrimidin-2-yl)ethyl)amino)thieno[3,2-b]pyridin-5(4H)-one]",GI50,[1],1240 pM
same,IC50,[2],230 pM
same,IC50,[3],1090 pM
same,GI50,[4],850 pM
